Measurements from US10556883B2, “Benzenesulfonamide compounds, method for synthesizing same, and use thereof in medicine and cosmetics” (GALDERMA RESEARCH & DEVELOPMENT, priority 2016, dated 2020).

Tested on: TNFα secretion from LPS stimulated frozen Peripheral Blood Mononuclear Cells (PBMC)
Test: inhibition of TNFα secretion from LPS stimulated human PBMC (hPBMC assay)
Format: cell-based
Conditions: LPS 1 μg/mL, overnight incubation, TNFα by HTRF
Method: Activity of the compounds was investigated using human peripheral blood mononuclear cells (hPBMC). This assay was designed to measure the inhibition of the TNFα secretion from LPS stimulated frozen Peripheral Blood Mononuclear Cells (PBMC) isolated from human blood. TNFα levels were measured using HTRF® Human TNFα kit (Cisbio #62TNFPEC) which is a rapid and quantitative sandwich immunoassay based on TR-FRET technology.
Frozen PBMC were quickly thawed, resuspended in culture medium (RPMI 10% inactivated FBS) and viable cells were seeded in 96-well plates (50,000 cells/well). […] After overnight incubation at 37° C., 10 μL of cell supernatant were mixed with 5 μL of each tagged anti-TNFα specific antibody as recommended by the supplier. After 2 hours of incubation at room temperature, the HTRF® signals were measured using a microplate reader (wavelengths: excitation=337 nm, first emission=620 nm, second emission=665 nm).

Q: For `Cc1cc(COc2ccc(S(=O)(=O)NC3(C(=O)NO)CN(C(=O)OC(C)(C)C)C3)cc2)c2ccccc2n1` [Example 14, Tert-butyl 3-(hydroxycarbamoyl)-3-((4-((2-methylquinolin-4-yl)methoxy)phenyl)sulfonamido)azetidine-1-carboxylate], which IC50 is on record?
A: The IC50 was less than 50 nM.

Q: For `Cc1cc(COc2ccc(S(=O)(=O)NC3(C(=O)NO)CN(C(=O)CC(C)(C)C)C3)cc2)c2ccccc2n1` [Example 15, 1-(3,3-dimethylbutanoyl)-N-hydroxy-3-((4-((2-methylquinolin-4-yl)methoxy)phenyl)sulfonamido)azetidine-3-carboxamide], which IC50 is on record?
A: The IC50 was 50 to 100 nM.

Q: Which IC50 does the source give for `Cc1cc(COc2ccc(S(=O)(=O)NC3(C(=O)NO)CN(C(=O)N4CCCCC4)C3)cc2)c2ccccc2n1` [Example 16a, N-hydroxy-3-((4-((2-methylquinolin-4-yl)methoxy)phenyl)sulfonamido)-1-(piperidine-1-carbonyl)azetidine-3-carboxamide] here?
A: The IC50 was 50 to 100 nM.

Q: For `Cc1cc(COc2ccc(S(=O)(=O)NC3(C(=O)NO)CN(C(=O)N4CCOCC4)C3)cc2)c2ccccc2n1` [Example 16b, N-hydroxy-3-((4-((2-methylquinolin-4-yl)methoxy)phenyl)sulfonamido)-1-(morpholine-4-carbonyl)azetidine-3-carboxamide], which IC50 is on record?
A: The IC50 was less than 50 nM.

Q: With `Cc1cc(COc2ccc(S(=O)(=O)NC3(C(=O)NO)CN(C(=O)N4CCN(C)CC4)C3)cc2)c2ccccc2n1` [Example 16c, N-hydroxy-1-(4-methylpiperazine-1-carbonyl)-3-((4-((2-methylquinolin-4-yl)methoxy)phenyl)sulfonamido)azetidine-3-carboxamide] as the compound, how does the IC50 read?
A: The IC50 was less than 50 nM.

Q: `C=CCOC(=O)N1CC(NS(=O)(=O)c2ccc(OCc3cc(C)nc4ccccc34)cc2)(C(=O)NO)C1` [Example 17, Allyl 3-(hydroxycarbamoyl)-3-((4-((2-methylquinolin-4-yl)methoxy)phenyl)sulfonamido)azetidine-1-carboxylate] was tested. Which IC50 did it give?
A: Its IC50 is less than 50 nM.

Q: Which IC50 does the source give for `Cc1cc(COc2ccc(S(=O)(=O)N(C)C3(C(=O)NO)CN(C(=O)C(C)C)C3)cc2)c2ccccc2n1` [Example 19a, N-hydroxy-1-isobutyryl-3-((N-methyl-4-((2-methylquinolin-4-yl)methoxy)phenyl)sulfonamido)azetidine-3-carboxamide] here?
A: The IC50 was less than 50 nM.

Q: With `CCC(CC)C(=O)N1CC(C(=O)NO)(N(C)S(=O)(=O)c2ccc(OCc3cc(C)nc4ccccc34)cc2)C1` [Example 19b, 1-(2-ethylbutanoyl)-N-hydroxy-3-((N-methyl-4-((2-methylquinolin-4-yl)methoxy)phenyl)sulfonamido)azetidine-3-carboxamide] as the compound, how does the IC50 read?
A: Its IC50 is 50 to 100 nM.

Q: With `Cc1cc(COc2ccc(S(=O)(=O)N(C)C3(C(=O)NO)CN(C(=O)C4CCOCC4)C3)cc2)c2ccccc2n1` [Example 19c, N-hydroxy-3-((N-methyl-4-((2-methylquinolin-4-yl)methoxy)phenyl)sulfonamido)-1-(tetrahydro-2H-pyran-4-carbonyl)azetidine-3-carboxamide] as the compound, how does the IC50 read?
A: The IC50 was less than 50 nM.

Q: For `Cc1cc(COc2ccc(S(=O)(=O)N(C)C3(C(=O)NO)CN(C(=O)CC(C)C)C3)cc2)c2ccccc2n1` [Example 19d, N-hydroxy-3-((N-methyl-4-((2-methylquinolin-4-yl)methoxy)phenyl)sulfonamido)-1-(3-methylbutanoyl)azetidine-3-carboxamide], which IC50 is on record?
A: Its IC50 is less than 50 nM.

Q: With `Cc1cc(COc2ccc(S(=O)(=O)N(C)C3(C(=O)NO)CN(C(=O)OC(C)(C)C)C3)cc2)c2ccccc2n1` [Example 20, Tert-butyl 3-(hydroxycarbamoyl)-3-((N-methyl-4-((2-methylquinolin-4-yl)methoxy)phenyl)sulfonamido)azetidine-1-carboxylate] as the compound, how does the IC50 read?
A: Its IC50 is less than 50 nM.

Q: How did the IC50 turn out when `CCN(C1(C(=O)NO)CN(C(=O)C(C)C)C1)S(=O)(=O)c1ccc(OCc2cc(C)nc3ccccc23)cc1` [Example 21a, 3-((N-ethyl-4-((2-methylquinolin-4-yl)methoxy)phenyl)sulfonamido)-N-hydroxy-1-isobutyrylazetidine-3-carboxamide] was run?
A: Its IC50 is less than 50 nM.

Q: Which IC50 does the source give for `CCN(C1(C(=O)NO)CN(C(=O)C2CCOCC2)C1)S(=O)(=O)c1ccc(OCc2cc(C)nc3ccccc23)cc1` [Example 21b, 3-((N-ethyl-4-((2-methylquinolin-4-yl)methoxy)phenyl)sulfonamido)-N-hydroxy-1-(tetrahydro-2H-pyran-4-carbonyl)azetidine-3-carboxamide] here?
A: The IC50 was 50 to 100 nM.

Q: For `COCCN(C1(C(=O)NO)CN(C(=O)C(C)C)C1)S(=O)(=O)c1ccc(OCc2cc(C)nc3ccccc23)cc1` [Example 22, N-hydroxy-1-isobutyryl-3-((N-(2-methoxyethyl)-4-((2-methylquinolin-4-yl)methoxy)phenyl)sulfonamido)azetidine-3-carboxamide], which IC50 is on record?
A: The IC50 was less than 50 nM.

Q: `Cc1cc(COc2ccc(S(=O)(=O)N(C(C)C)C3(C(=O)NO)CN(C(=O)C(C)C)C3)cc2)c2ccccc2n1` [Example 23, N-hydroxy-1-isobutyryl-3-((N-isopropyl-4-((2-methylquinolin-4-yl)methoxy)phenyl)sulfonamido)azetidine-3-carboxamide] was tested. Which IC50 did it give?
A: Its IC50 is 500 to 1000 nM.

Q: Which IC50 does the source give for `CC(=O)N1CC(CC(=O)NO)(NS(=O)(=O)c2ccc(OCc3cc(C)nc4c(C)cccc34)cc2)C1` [Example 24, 2-(1-acetyl-3-((4-((2,8-dimethylquinolin-4-yl)methoxy)phenyl)sulfonamido)azetidin-3-yl)-N-hydroxyacetamide] here?
A: The IC50 was less than 50 nM.

Q: `Cc1cc(COc2ccc(S(=O)(=O)NC3(CC(=O)NO)CN(C(=O)N4CCOCC4)C3)cc2)c2ccccc2n1` [Example 25, N-hydroxy-2-(3-((4-((2-methylquinolin-4-yl)methoxy)phenyl)sulfonamido)-1-(morpholine-4-carbonyl)azetidin-3-yl)acetamide] was tested. Which IC50 did it give?
A: The IC50 was less than 50 nM.

Q: How did the IC50 turn out when `CO[C@H]1C[C@H](C(=O)N2CC(NS(=O)(=O)c3ccc(OCc4cc(C)nc5ccccc45)cc3)(C(=O)NO)C2)C1` [Example 26a, N-hydroxy-1-((1r,3r)-3-methoxycyclobutane-1-carbonyl)-3-((4-((2-methylquinolin-4-yl)methoxy)phenyl)sulfonamido)azetidine-3-carboxamide] was run?
A: Its IC50 is less than 50 nM.

Q: With `CO[C@H]1C[C@@H](C(=O)N2CC(NS(=O)(=O)c3ccc(OCc4cc(C)nc5ccccc45)cc3)(C(=O)NO)C2)C1` [Example 26b, N-hydroxy-1-((1s,3s)-3-methoxycyclobutane-1-carbonyl)-3-((4-((2-methylquinolin-4-yl)methoxy)phenyl)sulfonamido)azetidine-3-carboxamide] as the compound, how does the IC50 read?
A: The IC50 was less than 50 nM.

Q: For `Cc1cc(COc2ccc(S(=O)(=O)NC3(C(=O)NO)CN(C(=O)CC4CC4)C3)cc2)c2ccccc2n1` [Example 26c, 1-(2-cyclopropylacetyl)-N-hydroxy-3-((4-((2-methylquinolin-4-yl)methoxy)phenyl)sulfonamido)azetidine-3-carboxamide], which IC50 is on record?
A: The IC50 was less than 50 nM.

Q: For `CC[C@H](C)C(=O)N1CC(NS(=O)(=O)c2ccc(OCc3cc(C)nc4ccccc34)cc2)(C(=O)NO)C1` [Example 26d, (S)-N-hydroxy-1-(2-methylbutanoyl)-3-((4-((2-methylquinolin-4-yl)methoxy)phenyl)sulfonamido)azetidine-3-carboxamide], which IC50 is on record?
A: The IC50 was less than 50 nM.

Q: How did the IC50 turn out when `Cc1cc(COc2ccc(S(=O)(=O)NC3(C(=O)NO)CN(C(=O)C4CC(F)(F)C4)C3)cc2)c2ccccc2n1` [Example 26e, 1-(3,3-difluorocyclobutane-1-carbonyl)-N-hydroxy-3-((4-((2-methylquinolin-4-yl)methoxy)phenyl)sulfonamido)azetidine-3-carboxamide] was run?
A: The IC50 was less than 50 nM.

Q: `Cc1cc(COc2ccc(S(=O)(=O)NC3(C(=O)NO)CN(C(=O)C(C)C)C3)cc2)c2cccc(C)c2n1` [Example 27, 3-((4-((2,8-dimethylquinolin-4-yl)methoxy)phenyl)sulfonamido)-N-hydroxy-1-isobutyrylazetidine-3-carboxamide] was tested. Which IC50 did it give?
A: The IC50 was 100 to 500 nM.

Q: With `Cc1cc(COc2ccc(S(=O)(=O)NC3(CC(=O)NO)CN(C(=O)N4CCN(C(C)C)CC4)C3)cc2)c2ccccc2n1` [Example 28a, N-hydroxy-2-(1-(4-isopropylpiperazine-1-carbonyl)-3-((4-((2-methylquinolin-4-yl)methoxy)phenyl)sulfonamido)azetidin-3-yl)acetamide] as the compound, how does the IC50 read?
A: Its IC50 is less than 50 nM.

Q: How did the IC50 turn out when `Cc1cc(COc2ccc(S(=O)(=O)NC3(C(=O)NO)CN(C(=O)CC(C)C)C3)cc2)c2cccc(F)c2n1` [Example 29, 3-((4-((8-fluoro-2-methylquinolin-4-yl)methoxy)phenyl)sulfonamido)-N-hydroxy-1-(3-methylbutanoyl)azetidine-3-carboxamide] was run?
A: The IC50 was 100 to 500 nM.

Q: `Cc1cc(COc2ccc(S(=O)(=O)N(C)C3(C(=O)NO)CN(C(=O)C(C)C)C3)cc2)c2cccc(F)c2n1` [Example 30, 3-((4-((8-fluoro-2-methylquinolin-4-yl)methoxy)-N-methylphenyl)sulfonamido)-N-hydroxy-1-isobutyrylazetidine-3-carboxamide] was tested. Which IC50 did it give?
A: The IC50 was less than 50 nM.

Q: `Cc1cc(COc2ccc(S(=O)(=O)NC3(CC(=O)NO)CN(C(=O)N4CCN(C)CC4)C3)cc2)c2cccc(C)c2n1` [Example 31, 2-(3-((4-((2,8-dimethylquinolin-4-yl)methoxy)phenyl)sulfonamido)-1-(4-methylpiperazine-1-carbonyl)azetidin-3-yl)-N-hydroxyacetamide] was tested. Which IC50 did it give?
A: Its IC50 is 50 to 100 nM.
